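Briefly, cells in 96-well plates were exposed to five compound concentrations for 48 h, and endpoints were estimated by linear interpolation. TGI: total growth inhibition.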
What was measured:
Experiment in all cases: inhibition of tumour cell growth, NCI panel, 48 h
RPMI-8226 leukemia = tested on: RPMI-8226 leukemia
CCRF-CEM leukemia = tested on: CCRF-CEM leukemia
A498 renal = tested on: A498 renal
TK-10 renal = tested on: TK-10 renal
MOLT-4 leukemia = tested on: MOLT-4 leukemia
HCT-15 colon = tested on: HCT-15 colon
PC-3 prostate = tested on: PC-3 prostate
SNB-19 CNS = tested on: SNB-19 CNS
EKVX NSCLC = tested on: EKVX NSCLC
MDA-MB-231 breast = tested on: MDA-MB-231 breast
NCI-H460 lung = tested on: NCI-H460 lung
SK-MEL-28 melanoma = tested on: SK-MEL-28 melanoma
NCI-H226 lung = tested on: NCI-H226 lung
LOX IMVI melanoma = tested on: LOX IMVI melanoma
SF-539 CNS = tested on: SF-539 CNS
ACHN renal = tested on: ACHN renal
MDA-N = tested on: MDA-N
A549 NSCLC = tested on: A549 NSCLC
UO-31 renal = tested on: UO-31 renal
SK-OV-3 ovarian = tested on: SK-OV-3 ovarian
OVCAR-3 ovarian = tested on: OVCAR-3 ovarian
OVCAR-8 ovarian = tested on: OVCAR-8 ovarian
MALME-3M melanoma = tested on: MALME-3M melanoma
OVCAR-5 ovarian = tested on: OVCAR-5 ovarian
CAKI-1 renal = tested on: CAKI-1 renal
MDA-MB-435 = tested on: MDA-MB-435
UACC-257 melanoma = tested on: UACC-257 melanoma
NCI-H522 lung = tested on: NCI-H522 lung
HS 578T breast = tested on: HS 578T breast
786-0 renal = tested on: 786-0 renal
DU-145 prostate = tested on: DU-145 prostate
HOP-62 NSCLC = tested on: HOP-62 NSCLC
U251 CNS = tested on: U251 CNS
UACC-62 melanoma = tested on: UACC-62 melanoma
HL-60(TB) leukemia = tested on: HL-60(TB) leukemia
T-47D breast = tested on: T-47D breast
SF-268 CNS = tested on: SF-268 CNS
SF-295 CNS = tested on: SF-295 CNS
COLO 205 colon = tested on: COLO 205 colon
K-562 leukemia = tested on: K-562 leukemia
OVCAR-4 ovarian = tested on: OVCAR-4 ovarian
SK-MEL-2 melanoma = tested on: SK-MEL-2 melanoma
SK-MEL-5 melanoma = tested on: SK-MEL-5 melanoma
HOP-92 NSCLC = tested on: HOP-92 NSCLC
SN12C renal = tested on: SN12C renal
SNB-75 CNS = tested on: SNB-75 CNS
IGROV1 ovarian = tested on: IGROV1 ovarian
HT29 colon = tested on: HT29 colon
M14 melanoma = tested on: M14 melanoma
KM12 colon = tested on: KM12 colon
NCI-H23 lung = tested on: NCI-H23 lung
MCF7 breast = tested on: MCF7 breast
HCT-116 colon = tested on: HCT-116 colon
NCI/ADR-RES ovarian = tested on: NCI/ADR-RES ovarian
HCC-2998 colon = tested on: HCC-2998 colon
BT-549 breast = tested on: BT-549 breast
SW-620 colon = tested on: SW-620 colon
RXF 393 renal = tested on: RXF 393 renal

## CC(=O)O/C(=C(/C#N)C(=O)O)C1C(C(=O)O)C(c2ccccc2[N+](=O)[O-])C=C(c2ccco2)N1c1ccncc1 (stereo not drawn)
RPMI-8226 leukemia
  TGI: 4.46 µM
CCRF-CEM leukemia
  TGI: > 100 µM
A498 renal
  TGI: 25 µM
TK-10 renal
  TGI: 11.3 µM
MOLT-4 leukemia
  TGI: 14.4 µM
HCT-15 colon
  TGI: 4.83 µM
PC-3 prostate
  TGI: 18.4 µM
SNB-19 CNS
  TGI: 24.2 µM
EKVX NSCLC
  TGI: 22.1 µM
MDA-MB-231 breast
  TGI: 14.6 µM
NCI-H460 lung
  TGI: 19.3 µM
SK-MEL-28 melanoma
  TGI: 23.7 µM
NCI-H226 lung
  TGI: 18.9 µM
LOX IMVI melanoma
  TGI: 5.78 µM
SF-539 CNS
  TGI: 3.89 µM
ACHN renal
  TGI: 4.5 µM
MDA-N
  TGI: 7.26 µM
A549 NSCLC
  TGI: 26.7 µM
UO-31 renal
  TGI: 7.53 µM
SK-OV-3 ovarian
  TGI: 23.9 µM
OVCAR-3 ovarian
  TGI: 8.07 µM
OVCAR-8 ovarian
  TGI: 14.6 µM
MALME-3M melanoma
  TGI: 23 µM
OVCAR-5 ovarian
  TGI: 27.4 µM
CAKI-1 renal
  TGI: 14.1 µM
MDA-MB-435
  TGI: 15.7 µM
UACC-257 melanoma
  TGI: 12 µM
NCI-H522 lung
  TGI: 11.3 µM
HS 578T breast
  TGI: 42 µM
786-0 renal
  TGI: 6.62 µM
DU-145 prostate
  TGI: 21.4 µM
HOP-62 NSCLC
  TGI: 21.6 µM
U251 CNS
  TGI: 4.89 µM
UACC-62 melanoma
  TGI: 17 µM
HL-60(TB) leukemia
  TGI: > 100 µM
T-47D breast
  TGI: 18.4 µM
SF-268 CNS
  TGI: 25.2 µM
SF-295 CNS
  TGI: 19.2 µM
COLO 205 colon
  TGI: 7.82 µM
K-562 leukemia
  TGI: > 100 µM
OVCAR-4 ovarian
  TGI: 37.4 µM
SK-MEL-2 melanoma
  TGI: 22.2 µM
SK-MEL-5 melanoma
  TGI: 7.24 µM
HOP-92 NSCLC
  TGI: 35.1 µM
SN12C renal
  TGI: 10.2 µM
SNB-75 CNS
  TGI: 20.1 µM
IGROV1 ovarian
  TGI: 3.29 µM
HT29 colon
  TGI: 3.16 µM
M14 melanoma
  TGI: 9.33 µM
KM12 colon
  TGI: 3.14 µM
NCI-H23 lung
  TGI: 12.7 µM
MCF7 breast
  TGI: 4.38 µM
HCT-116 colon
  TGI: 3.06 µM
NCI/ADR-RES ovarian
  TGI: 36.6 µM
HCC-2998 colon
  TGI: 9.45 µM
BT-549 breast
  TGI: 16.3 µM
SW-620 colon
  TGI: 3.57 µM

## Cc1cc2c(cc1Cl)Sc1nnc(C)n1S2(=O)=O
CCRF-CEM leukemia
  TGI: 34.1 µM
A498 renal
  TGI: 40.2 µM
TK-10 renal
  TGI: 56.9 µM
MOLT-4 leukemia
  TGI: 34.7 µM
HCT-15 colon
  TGI: 25.5 µM
PC-3 prostate
  TGI: 37 µM
SNB-19 CNS
  TGI: 86.5 µM
EKVX NSCLC
  TGI: 34.3 µM
MDA-MB-231 breast
  TGI: 31.4 µM
NCI-H460 lung
  TGI: 78.5 µM
SK-MEL-28 melanoma
  TGI: 31.5 µM
NCI-H226 lung
  TGI: > 100 µM
LOX IMVI melanoma
  TGI: 23.6 µM
SF-539 CNS
  TGI: 36.4 µM
ACHN renal
  TGI: 27.7 µM
MDA-N
  TGI: 29.7 µM
A549 NSCLC
  TGI: 97.2 µM
UO-31 renal
  TGI: 24.1 µM
SK-OV-3 ovarian
  TGI: 75.2 µM
OVCAR-3 ovarian
  TGI: 29.6 µM
OVCAR-8 ovarian
  TGI: 48.8 µM
MALME-3M melanoma
  TGI: 22.8 µM
OVCAR-5 ovarian
  TGI: 97.7 µM
CAKI-1 renal
  TGI: 29.9 µM
MDA-MB-435
  TGI: 26.6 µM
UACC-257 melanoma
  TGI: 30.5 µM
NCI-H522 lung
  TGI: 23.4 µM
HS 578T breast
  TGI: 79.7 µM
786-0 renal
  TGI: 44.5 µM
DU-145 prostate
  TGI: 65 µM
HOP-62 NSCLC
  TGI: 57.9 µM
U251 CNS
  TGI: 42.8 µM
UACC-62 melanoma
  TGI: 30.6 µM
HL-60(TB) leukemia
  TGI: 24.4 µM
T-47D breast
  TGI: 28.3 µM
SF-268 CNS
  TGI: 42.4 µM
SF-295 CNS
  TGI: 33.8 µM
COLO 205 colon
  TGI: 30.7 µM
K-562 leukemia
  TGI: 35.4 µM
OVCAR-4 ovarian
  TGI: 27.2 µM
SK-MEL-5 melanoma
  TGI: 27 µM
HOP-92 NSCLC
  TGI: 24.1 µM
SN12C renal
  TGI: 34.3 µM
SNB-75 CNS
  TGI: 47.5 µM
IGROV1 ovarian
  TGI: 29.1 µM
HT29 colon
  TGI: 45.8 µM
M14 melanoma
  TGI: 30.8 µM
KM12 colon
  TGI: 30.9 µM
RXF 393 renal
  TGI: 47.4 µM
NCI-H23 lung
  TGI: 30.1 µM
MCF7 breast
  TGI: 18.1 µM
HCT-116 colon
  TGI: 45.4 µM
NCI/ADR-RES ovarian
  TGI: 69.8 µM
HCC-2998 colon
  TGI: 33.9 µM
BT-549 breast
  TGI: 29.7 µM
SW-620 colon
  TGI: 35 µM

From PubChem BioAssay (NCI)
